Assay results reported in PubChem BioAssay (NCI).
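Method: 48-hour compound exposure of cells in 96-well plates, five concentrations, linear interpolation of endpoints. The concentration for 50% growth inhibition is given as GI50. The concentration for full growth arrest is given as TGI.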

Legend:
Assay in all cases: NCI tumour cell line growth inhibition, 48 h
OVCAR-3 ovarian = tested on: OVCAR-3 ovarian
SK-MEL-5 melanoma = tested on: SK-MEL-5 melanoma
LXFL 529 NSCLC = tested on: LXFL 529 NSCLC
M19-MEL melanoma = tested on: M19-MEL melanoma
DMS 114 small cell lung = tested on: DMS 114 small cell lung
UACC-257 melanoma = tested on: UACC-257 melanoma
RXF 393 renal = tested on: RXF 393 renal
PC-3 prostate = tested on: PC-3 prostate
NCI/ADR-RES ovarian = tested on: NCI/ADR-RES ovarian
HS 578T breast = tested on: HS 578T breast

| Structure (SMILES) | TGI (OVCAR-3 ovarian) [µM] | TGI (SK-MEL-5 melanoma) [µM] | TGI (LXFL 529 NSCLC) [µM] | TGI (M19-MEL melanoma) [µM] | TGI (DMS 114 small cell lung) [µM] | TGI (UACC-257 melanoma) [µM] | TGI (RXF 393 renal) [µM] | TGI (PC-3 prostate) [µM] | TGI (NCI/ADR-RES ovarian) [µM] | TGI (HS 578T breast) [µM] | GI50 (OVCAR-3 ovarian) [µM] | GI50 (PC-3 prostate) [µM] | GI50 (SK-MEL-5 melanoma) [µM] | GI50 (NCI/ADR-RES ovarian) [µM] | GI50 (HS 578T breast) [µM] | GI50 (UACC-257 melanoma) [µM] | GI50 (RXF 393 renal) [µM] | GI50 (LXFL 529 NSCLC) [µM] |
| --- | --- | --- | --- | --- | --- | --- | --- | --- | --- | --- | --- | --- | --- | --- | --- | --- | --- | --- |
| O=C1CCCCC1S(=O)(=O)c1ccccc1 (stereo not drawn) | > 100 | > 100 | > 100 | > 100 | > 100 | > 100 | > 100 |  |  |  |  |  |  |  |  |  |  |  |
| O=C1/C(=C/c2ccccc2)CN(C(=O)CCN2CCOCC2)C/C1=C\c1ccccc1 | 11.5 | 4.99 | 6.35 | 4.06 | 7.59 | 4.99 | 8.87 | 8.51 | 9.46 | 13.1 |  |  |  |  |  |  |  |  |
| CSc1nnc(CCC(=O)Nc2c(C)cccc2C)o1 | > 100 | > 100 | > 100 | > 100 | > 100 | > 100 | > 100 |  |  |  |  |  |  |  |  |  |  |  |
| NC(=O)CN(CC(N)=O)C(N)=O | > 100 | > 100 | > 100 | > 100 | > 100 | > 100 | > 100 |  |  |  |  |  |  |  |  |  |  |  |
| NNC(=O)C1CCC(=O)N1S(=O)(=O)c1ccccc1 (stereo not drawn) | > 100 | > 100 | > 100 | > 100 | > 100 | > 100 | > 100 |  |  |  |  |  |  |  |  |  |  |  |
| C#CC#CC#CC#CC#CC#CC#CC#CCC1OCC(COC(=O)O[C@@H](C(=O)O[C@H]2C[C@@]3(O)[C@@H](OC(=O)c4ccccc4)[C@@H]4[C@]5(OC(C)=O)CO[C@@H]5C[C@H](O)[C@@]4(C)C(=O)[C@H](OC(C)=O)C(=C2C)C3(C)C)[C@@H](NC(=O)c2ccccc2)c2ccccc2)O1 (stereo partly drawn) |  | > 9.85 |  |  |  | > 33.3 | > 8.96 | > 33.3 | > 33.3 |  | 0.0971 | 0.268 | 0.671 | > 33.3 | 0.108 | > 8.95 | 0.599 |  |
| O=C1c2cc3c(cc2[C@@H]2[C@H]1c1ccc([N+](=O)[O-])cc1C(=O)N2CCCBr)OCO3 |  | 0.0101 |  |  |  | > 100 | < 0.01 | 0.184 | 0.0177 | 11.5 | < 0.037 | < 0.01 | < 0.01 | < 0.01 | 0.381 | < 0.01 | < 0.01 |  |
| O=c1cnn(C2OC(CO)C(O)C2O)c(=S)[nH]1 (stereo not drawn) | > 100 | > 100 | > 100 | > 100 | > 100 | > 100 | > 100 | > 100 | > 100 | > 100 |  |  |  |  |  |  |  |  |
| C=C1C(O)C2C(=C(CC)C13CC3)C(=O)C(C)(C)C2OC (stereo not drawn) | > 100 | > 100 |  |  |  | > 100 | > 100 | > 100 | > 100 | > 100 | 40.3 | 35.2 | 42.6 | 92.7 | > 100 | 35.6 | > 100 |  |
| Cc1nc(Nc2ccccc2)sc1C(=O)CC(=O)C(=O)Nc1c(C(C)C)cccc1C(C)C | > 100 | > 100 | > 100 | > 100 | > 100 | > 100 | > 100 |  |  |  |  |  |  |  |  |  |  |  |
| COc1ccc2c(c1)c(CC(=O)[Se]C)c(C)n2C(=O)c1ccc(Cl)cc1 | > 0.583 | > 0.608 |  |  |  | > 0.689 | > 0.5 | > 0.897 | > 0.695 | > 0.942 | > 0.367 | > 0.337 | > 0.434 | > 0.237 | > 0.297 | > 0.352 | > 0.206 |  |
| CC1=NN(C(=O)c2ccccc2O)C(=O)/C1=C/c1ccc(O)cc1 | 3.43 | > 100 | > 100 |  | 16.1 | > 100 |  | > 100 | 28.3 |  |  |  |  |  |  |  |  |  |
| CCOC(=O)/C(C1=NCCN1)=C(\O)c1ccccc1 | > 100 | > 100 | > 100 | > 100 |  | > 100 | > 100 |  |  |  |  |  |  |  |  |  |  |  |
| O=C(/C=C/Sc1cc(C(F)(F)F)cc(C(F)(F)F)c1)c1ccc(Cl)cc1 | 4.19 | 32.9 |  |  |  | 27.5 | 25.3 | 5.97 | 46.3 | 43.7 | 1.48 | 2.42 | 17.4 | 23.4 | 16.5 | 14.1 | 12 |  |
| N#C/C(=C\c1ccsc1)c1nc2ccccc2o1 | > 100 | > 100 |  |  |  | > 100 | > 100 | > 100 | > 100 | 92.9 | 85.1 | > 100 | 58.8 | > 100 | 26 | > 100 | 39.8 |  |
| CCOc1cc2c(C(=O)CC)c(O)ccc2o1 | > 100 | > 63.3 | > 100 | > 63.7 | > 87.2 | > 100 | > 95.7 |  |  |  |  |  |  |  |  |  |  |  |
| CC(=O)[CH-]C(=O)c1ccccc1.CC(=O)[CH-]C(=O)c1ccccc1.CC[O-].CC[O-].[Hf+4] | > 100 | > 100 | > 100 |  |  |  | > 100 |  |  |  | > 100 |  | > 100 |  |  |  | > 100 | > 100 |
| COc1cccc(-c2c[nH]c3c(N/N=C/c4ccncc4)ncnc23)c1 | 6.26 | 3.91 |  |  |  | 17.5 | 2.16 | > 25 | > 19.3 | 9.97 | 1.12 | 4.53 | 0.809 | 4.54 | 0.816 | 6.02 | 0.501 |  |
